Our source for the IC50 values is US20160159816A1, “SUBSTITUTED THIENOPYRIMIDINES AND PHARMACEUTICAL USE THEREOF” (BAYER PHARMA AKTIENGESELLSCHAFT, priority 2013, published 2016).

SMILES strings stand for the structures.

T1 sequence (Q9BUB5 1-424 isoform Q9BUB5-2 T344D): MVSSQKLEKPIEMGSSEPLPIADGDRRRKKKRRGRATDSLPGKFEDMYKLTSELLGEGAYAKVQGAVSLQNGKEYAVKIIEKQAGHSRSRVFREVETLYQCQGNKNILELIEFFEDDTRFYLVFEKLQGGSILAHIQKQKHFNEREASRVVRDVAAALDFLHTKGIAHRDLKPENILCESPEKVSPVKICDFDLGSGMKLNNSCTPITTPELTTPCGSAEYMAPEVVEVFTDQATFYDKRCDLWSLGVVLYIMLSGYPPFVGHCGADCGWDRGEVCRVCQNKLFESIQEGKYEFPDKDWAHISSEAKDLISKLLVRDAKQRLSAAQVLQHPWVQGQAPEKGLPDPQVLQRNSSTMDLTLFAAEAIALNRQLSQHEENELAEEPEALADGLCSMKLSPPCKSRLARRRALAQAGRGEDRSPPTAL

The test concerns the target T1, human full-length MKNK1 (Homo sapiens, UniProt Q9BUB5, T385D).
T1 construct: GST (N); purchased Carna Biosciences 02-145; host or cells: insect cells, baculovirus expression system
Nature of the test: MKNK1 kinase high ATP assay (TR-FRET). It counts as biochemical. As to conditions: high ATP (2 mM), after preincubation with MKNK1; compounds of the present invention (Table 1a). An outline of the steps: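 GST-tagged full-length human MKNK1 pre-incubated 15 min with compound, then reacted 30 min at 22 °C with 2 mM ATP and 0.06 μM biotinylated peptide substrate (pH 7.5). Phospho-peptide detected by TR-FRET (665/620 nm ratio); normalised to no-inhibitor and no-enzyme controls.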
(In TR-FRET formats the signal depends on donor and acceptor labels being close together.)
Turning to `CC[C@@]1(C(=O)N2C[C@@H](C)O[C@@H](C)C2)CCc2c(sc3ncnc(Nc4cc5cn[nH]c5cc4OC)c23)C1` [Example 70, (7R) [(2R,6S)-2,6-Dimethylmorpholin-4-yl]{7-ethyl-4-[(6-methoxy-1H-indazol-5-yl)amino]-5,6,7,8-tetrahydro[1]benzothieno[2,3-d]pyrimidin-7-yl}methanone], it took 50.9 nM to reach half-maximal inhibition (IC50).
To `CC[C@]1(C(=O)N2C[C@@H](C)O[C@@H](C)C2)CCc2c(sc3ncnc(Nc4cc5cn[nH]c5cc4OC)c23)C1` [Example 71, (7S) [(2R,6S)-2,6-Dimethylmorpholin-4-yl]{7-ethyl-4-[(6-methoxy-1H-indazol-5-yl)amino]-5,6,7,8-tetrahydro[1]benzothieno[2,3-d]pyrimidin-7-yl}methanone] belongs 1.6 nM; to `CC[C@@]1(C(=O)N(C)C(C)C)CCc2c(sc3ncnc(Nc4cc5cn[nH]c5cc4OC)c23)C1` [Example 72, (7R) 7-Ethyl-N-isopropyl-4-[(6-methoxy-1H-indazol-5-yl)amino]-N-methyl-5,6,7,8-tetrahydro[1]benzothieno[2,3-d]pyrimidine-7-carboxamide], 38.4 nM.
`CC[C@]1(C(=O)N(C)C(C)C)CCc2c(sc3ncnc(Nc4cc5cn[nH]c5cc4OC)c23)C1` [Example 73, (7S) 7-Ethyl-N-isopropyl-4-[(6-methoxy-1H-indazol-5-yl)amino]-N-methyl-5,6,7,8-tetrahydro[1]benzothieno[2,3-d]pyrimidine-7-carboxamide] came in with an IC50 of 1.4 nM.
Under `CC[C@]1(C(=O)N2CCOC[C@H]2C)CCc2c(sc3ncnc(Nc4cc5cn[nH]c5cc4OC)c23)C1` [Example 75, {(7S)-7-Ethyl-4-[(6-methoxy-1H-indazol-5-yl)amino]-5,6,7,8-tetrahydro[1]benzothieno[2,3-d]pyrimidin-7-yl}[(3R)-3-methylmorpholin-4-yl]methanone] stands 20.6 nM.

One may read the IC50 as the concentration needed to halve the response being measured. Lower therefore signals greater potency in that assay.
